Measured values taken from PubChem BioAssay (NCI).
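Values below derive from 48-hour exposures of cells grown in 96-well plates, with endpoints linearly interpolated between the two concentrations bracketing the appropriate inhibition level. Definition used: TGI = concentration required for complete inhibition of growth.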 Where a SMILES comes first, the peptide text is derived from it. [ ]: non-standard residue; d: D form. The star is where a group is joined. ξ: configuration not given here. ξD = NC(CC(=O)O)C(=O)O; Ac3c = NC1(C(=O)O)CC1; Boc = CC(C)(C)OC(=O)*; OtBu = CC(C)(C)O*

Experiments:
Assay in all cases: DTP human tumour cell line panel, 48 h
NCI-H522 lung = test system: NCI-H522 lung
OVCAR-8 ovarian = test system: OVCAR-8 ovarian
MALME-3M melanoma = test system: MALME-3M melanoma
U251 CNS = test system: U251 CNS
RXF 393 renal = test system: RXF 393 renal
SF-539 CNS = test system: SF-539 CNS
ACHN renal = test system: ACHN renal
HOP-62 NSCLC = test system: HOP-62 NSCLC
CCRF-CEM leukemia = test system: CCRF-CEM leukemia
HCC-2998 colon = test system: HCC-2998 colon
HT29 colon = test system: HT29 colon
OVCAR-5 ovarian = test system: OVCAR-5 ovarian
SN12C renal = test system: SN12C renal
786-0 renal = test system: 786-0 renal
OVCAR-4 ovarian = test system: OVCAR-4 ovarian
IGROV1 ovarian = test system: IGROV1 ovarian
BT-549 breast = test system: BT-549 breast
EKVX NSCLC = test system: EKVX NSCLC
SK-MEL-28 melanoma = test system: SK-MEL-28 melanoma
NCI-H460 lung = test system: NCI-H460 lung
UO-31 renal = test system: UO-31 renal
K-562 leukemia = test system: K-562 leukemia
RPMI-8226 leukemia = test system: RPMI-8226 leukemia
NCI/ADR-RES ovarian = test system: NCI/ADR-RES ovarian
MDA-MB-231 breast = test system: MDA-MB-231 breast
MOLT-4 leukemia = test system: MOLT-4 leukemia
A549 NSCLC = test system: A549 NSCLC
A498 renal = test system: A498 renal
COLO 205 colon = test system: COLO 205 colon
SNB-19 CNS = test system: SNB-19 CNS
DU-145 prostate = test system: DU-145 prostate
SK-MEL-2 melanoma = test system: SK-MEL-2 melanoma
SF-268 CNS = test system: SF-268 CNS
HCT-15 colon = test system: HCT-15 colon
MDA-MB-435 = test system: MDA-MB-435
KM12 colon = test system: KM12 colon
HS 578T breast = test system: HS 578T breast
SW-620 colon = test system: SW-620 colon
CAKI-1 renal = test system: CAKI-1 renal
UACC-62 melanoma = test system: UACC-62 melanoma
SF-295 CNS = test system: SF-295 CNS
SK-OV-3 ovarian = test system: SK-OV-3 ovarian
T-47D breast = test system: T-47D breast
UACC-257 melanoma = test system: UACC-257 melanoma
MDA-N = test system: MDA-N
OVCAR-3 ovarian = test system: OVCAR-3 ovarian
HCT-116 colon = test system: HCT-116 colon
LOX IMVI melanoma = test system: LOX IMVI melanoma
PC-3 prostate = test system: PC-3 prostate
NCI-H226 lung = test system: NCI-H226 lung
M14 melanoma = test system: M14 melanoma
NCI-H23 lung = test system: NCI-H23 lung
MCF7 breast = test system: MCF7 breast
TK-10 renal = test system: TK-10 renal
SNB-75 CNS = test system: SNB-75 CNS
SK-MEL-5 melanoma = test system: SK-MEL-5 melanoma
HL-60(TB) leukemia = test system: HL-60(TB) leukemia
HOP-92 NSCLC = test system: HOP-92 NSCLC
SR leukemia = test system: SR leukemia

COC(=O)C1(NC(=O)C(CC(=O)OC(C)(C)C)NC(=O)OC(C)(C)C)CC1 (stereo not drawn) (Boc-[ξD](OtBu)-[Ac3c]-OMe)
TGI (NCI-H522 lung): > 100 µM
TGI (OVCAR-8 ovarian): > 100 µM
TGI (MALME-3M melanoma): > 100 µM
TGI (U251 CNS): > 100 µM
TGI (RXF 393 renal): > 100 µM
TGI (SF-539 CNS): > 100 µM
TGI (ACHN renal): > 100 µM
TGI (HOP-62 NSCLC): > 100 µM
TGI (CCRF-CEM leukemia): > 100 µM
TGI (HCC-2998 colon): > 100 µM
TGI (HT29 colon): > 100 µM
TGI (OVCAR-5 ovarian): > 100 µM
TGI (SN12C renal): > 100 µM
TGI (786-0 renal): > 100 µM
TGI (OVCAR-4 ovarian): > 100 µM
TGI (IGROV1 ovarian): > 100 µM
TGI (BT-549 breast): > 100 µM
TGI (EKVX NSCLC): > 100 µM
TGI (SK-MEL-28 melanoma): > 100 µM
TGI (NCI-H460 lung): > 100 µM
TGI (UO-31 renal): > 100 µM
TGI (K-562 leukemia): > 100 µM
TGI (RPMI-8226 leukemia): > 100 µM
TGI (NCI/ADR-RES ovarian): > 100 µM
TGI (MDA-MB-231 breast): > 100 µM
TGI (MOLT-4 leukemia): > 100 µM
TGI (A549 NSCLC): > 100 µM
TGI (A498 renal): > 100 µM
TGI (COLO 205 colon): > 100 µM
TGI (SNB-19 CNS): > 100 µM
TGI (DU-145 prostate): > 100 µM
TGI (SK-MEL-2 melanoma): > 100 µM
TGI (SF-268 CNS): > 100 µM
TGI (HCT-15 colon): > 100 µM
TGI (MDA-MB-435): > 100 µM
TGI (KM12 colon): > 100 µM
TGI (HS 578T breast): > 100 µM
TGI (SW-620 colon): > 100 µM
TGI (CAKI-1 renal): > 100 µM
TGI (UACC-62 melanoma): > 100 µM
TGI (SF-295 CNS): > 100 µM
TGI (SK-OV-3 ovarian): > 100 µM
TGI (T-47D breast): > 100 µM
TGI (UACC-257 melanoma): > 100 µM
TGI (MDA-N): > 100 µM
TGI (OVCAR-3 ovarian): > 100 µM
TGI (HCT-116 colon): > 100 µM
TGI (LOX IMVI melanoma): > 100 µM
TGI (PC-3 prostate): > 100 µM
TGI (NCI-H226 lung): > 100 µM
TGI (M14 melanoma): > 100 µM
TGI (NCI-H23 lung): > 100 µM
TGI (MCF7 breast): > 100 µM
TGI (TK-10 renal): > 100 µM
TGI (SNB-75 CNS): > 100 µM
TGI (SK-MEL-5 melanoma): > 100 µM

S=C(N/N=C\c1ccccn1)N(Cc1ccccn1)Cc1ccccn1
TGI (NCI-H522 lung): 33.1 µM
TGI (OVCAR-8 ovarian): 12.7 µM
TGI (MALME-3M melanoma): 16.9 µM
TGI (U251 CNS): > 40 µM
TGI (RXF 393 renal): 32.2 µM
TGI (SF-539 CNS): > 100 µM
TGI (ACHN renal): 5.13 µM
TGI (HOP-62 NSCLC): 41.7 µM
TGI (CCRF-CEM leukemia): > 100 µM
TGI (HCC-2998 colon): > 43.1 µM
TGI (HT29 colon): 16.2 µM
TGI (OVCAR-5 ovarian): 63.9 µM
TGI (SN12C renal): 25.7 µM
TGI (786-0 renal): 13.3 µM
TGI (OVCAR-4 ovarian): 18.7 µM
TGI (IGROV1 ovarian): 11.2 µM
TGI (BT-549 breast): 12.9 µM
TGI (EKVX NSCLC): 17.2 µM
TGI (SK-MEL-28 melanoma): > 49.7 µM
TGI (NCI-H460 lung): > 44 µM
TGI (UO-31 renal): 7.87 µM
TGI (K-562 leukemia): > 100 µM
TGI (RPMI-8226 leukemia): > 38.8 µM
TGI (NCI/ADR-RES ovarian): 5.2 µM
TGI (MDA-MB-231 breast): > 49 µM
TGI (MOLT-4 leukemia): 19.4 µM
TGI (A549 NSCLC): > 42 µM
TGI (COLO 205 colon): 23.9 µM
TGI (SNB-19 CNS): 21.9 µM
TGI (DU-145 prostate): 19.7 µM
TGI (SK-MEL-2 melanoma): 37.9 µM
TGI (HL-60(TB) leukemia): > 100 µM
TGI (SF-268 CNS): 30.9 µM
TGI (HCT-15 colon): > 43.2 µM
TGI (MDA-MB-435): 41.8 µM
TGI (KM12 colon): 23.5 µM
TGI (HS 578T breast): > 74.4 µM
TGI (SW-620 colon): > 51.3 µM
TGI (CAKI-1 renal): 14.6 µM
TGI (UACC-62 melanoma): > 23.1 µM
TGI (SF-295 CNS): 16.3 µM
TGI (SK-OV-3 ovarian): 17.9 µM
TGI (T-47D breast): > 40.4 µM
TGI (UACC-257 melanoma): 39.5 µM
TGI (MDA-N): 47.9 µM
TGI (OVCAR-3 ovarian): > 48.7 µM
TGI (HCT-116 colon): 16.5 µM
TGI (LOX IMVI melanoma): 12.6 µM
TGI (PC-3 prostate): 32.9 µM
TGI (NCI-H226 lung): 1.78 µM
TGI (HOP-92 NSCLC): 11.4 µM
TGI (M14 melanoma): 43.7 µM
TGI (NCI-H23 lung): 14.5 µM
TGI (MCF7 breast): > 100 µM
TGI (SR leukemia): > 39 µM
TGI (TK-10 renal): 17.6 µM
TGI (SNB-75 CNS): 20.2 µM
TGI (SK-MEL-5 melanoma): 16.8 µM

CCN(CC)C(=O)COc1cc2c(O)c3c(O)c(C)c4c(c13)C(=O)C(C)(OC=CC(OC)C(C)C(OC(C)=O)C(C)C(O)C(C)C(O)C(C)C=CC=C(C)C(=O)N2)O4 (stereo not drawn)
TGI (OVCAR-8 ovarian): > 100 µM
TGI (MALME-3M melanoma): > 100 µM
TGI (U251 CNS): > 100 µM
TGI (RXF 393 renal): > 100 µM
TGI (ACHN renal): > 100 µM
TGI (HOP-62 NSCLC): > 100 µM
TGI (CCRF-CEM leukemia): > 100 µM
TGI (HCC-2998 colon): > 100 µM
TGI (HT29 colon): > 100 µM
TGI (OVCAR-5 ovarian): > 100 µM
TGI (SN12C renal): > 100 µM
TGI (786-0 renal): > 100 µM
TGI (OVCAR-4 ovarian): > 100 µM
TGI (IGROV1 ovarian): > 100 µM
TGI (BT-549 breast): > 100 µM
TGI (EKVX NSCLC): > 100 µM
TGI (SK-MEL-28 melanoma): > 100 µM
TGI (NCI-H460 lung): > 100 µM
TGI (UO-31 renal): > 100 µM
TGI (K-562 leukemia): > 100 µM
TGI (RPMI-8226 leukemia): > 100 µM
TGI (NCI/ADR-RES ovarian): > 100 µM
TGI (MDA-MB-231 breast): > 100 µM
TGI (MOLT-4 leukemia): > 100 µM
TGI (A549 NSCLC): > 100 µM
TGI (A498 renal): > 100 µM
TGI (SNB-19 CNS): > 100 µM
TGI (DU-145 prostate): > 100 µM
TGI (SK-MEL-2 melanoma): > 100 µM
TGI (SF-268 CNS): > 100 µM
TGI (HCT-15 colon): > 100 µM
TGI (KM12 colon): > 100 µM
TGI (HS 578T breast): > 100 µM
TGI (SW-620 colon): > 100 µM
TGI (CAKI-1 renal): > 100 µM
TGI (UACC-62 melanoma): > 100 µM
TGI (SF-295 CNS): > 100 µM
TGI (SK-OV-3 ovarian): > 100 µM
TGI (T-47D breast): > 100 µM
TGI (UACC-257 melanoma): > 100 µM
TGI (MDA-N): > 100 µM
TGI (OVCAR-3 ovarian): > 100 µM
TGI (HCT-116 colon): > 100 µM
TGI (LOX IMVI melanoma): > 100 µM
TGI (PC-3 prostate): > 100 µM
TGI (NCI-H226 lung): > 100 µM
TGI (HOP-92 NSCLC): > 100 µM
TGI (M14 melanoma): > 100 µM
TGI (NCI-H23 lung): > 100 µM
TGI (MCF7 breast): > 100 µM
TGI (SR leukemia): > 100 µM
TGI (TK-10 renal): > 100 µM
TGI (SNB-75 CNS): > 100 µM
TGI (SK-MEL-5 melanoma): > 100 µM
